# Source: ChEMBL document CHEMBL3992518, “Peptide Macrocycle Inhibitor of Coagulation Factor XII with Subnanomolar Affinity and High Target Selectivity” (J Med Chem, 2017)
# *1 amine or outer side, *2 acyl side, *3 side chain or, on linkers, in order; H or OH if unused. Where a SMILES comes first, the peptide text is derived from it. Bridges are numbered along the chain shown (N, C = ends). [ ]: non-standard residue; d: D form. TATA = O=C(CC[*:1])N1CN(C(=O)CC[*:2])CN(C(=O)CC[*:3])C1; Phe(4-guanidino) = N=C(N)Nc1ccc(C[C@H](N)C(=O)O)cc1; tBuAla = CC(C)(C)C[C@H](N)C(=O)O; Nle = CCCC[C@H](N)C(=O)O
# Molecular target: T1, Coagulation factor XII (Homo sapiens, UniProt P00748)
# T1 sequence (P00748 whole entry): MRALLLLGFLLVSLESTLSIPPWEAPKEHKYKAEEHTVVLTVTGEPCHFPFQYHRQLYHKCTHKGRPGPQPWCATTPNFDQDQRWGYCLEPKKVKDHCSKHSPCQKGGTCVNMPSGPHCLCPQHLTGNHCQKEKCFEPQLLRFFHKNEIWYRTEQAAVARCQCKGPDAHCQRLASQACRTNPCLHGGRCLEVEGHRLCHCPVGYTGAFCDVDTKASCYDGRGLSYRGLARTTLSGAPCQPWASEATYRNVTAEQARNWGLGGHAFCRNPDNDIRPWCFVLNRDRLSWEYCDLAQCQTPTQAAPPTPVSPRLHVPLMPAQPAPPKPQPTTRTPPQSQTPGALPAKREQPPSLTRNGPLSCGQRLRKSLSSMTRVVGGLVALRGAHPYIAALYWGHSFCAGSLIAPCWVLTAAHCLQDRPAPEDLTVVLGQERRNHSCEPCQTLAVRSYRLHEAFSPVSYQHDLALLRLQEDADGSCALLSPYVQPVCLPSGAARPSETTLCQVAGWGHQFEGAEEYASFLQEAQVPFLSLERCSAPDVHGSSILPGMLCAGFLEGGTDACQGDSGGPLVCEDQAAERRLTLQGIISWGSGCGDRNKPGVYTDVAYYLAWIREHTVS
# Assay: Inhibition of human beta factor 12a using fluorogenic substrate Boc-Gln-Gly-Arg-AMC preincubated for 10 mins followed by addition of substrate measured every min for 30 mins
row,Ki [µM],Structure (SMILES)
1,0.0177,CC(C)C[C@@H]1NC(=O)[C@H](CCCNC(=N)N)NC(=O)[C@H](Cc2ccccc2)NC(=O)[C@@H](NC(=O)[C@@H](N)CCCNC(=N)N)CSCCC(=O)N2CN3CN(C2)C(=O)CCSC[C@H](NC(=O)[C@@H]2CCCN2C1=O)C(=O)N[C@@H](CCCNC(=N)N)C(=O)N[C@@H](CCC(N)=O)C(=O)N[C@@H](CC(C)(C)C)C(=O)N[C@@H](CCCNC(=N)N)C(=O)N[C@H](C(=O)N[C@@H](CCCNC(=N)N)C(=O)N[C@@H](Cc1c[nH]c2ccccc12)C(=O)O)CSCCC3=O
2,0.29,CC(C)C[C@@H]1NC(=O)[C@H](CCC(N)=O)NC(=O)[C@H](CCCNC(=N)N)NC(=O)[C@@H]2CSCCC(=O)N3CN(CN(C3)C(=O)CCSC[C@H](NC(=O)[C@@H](N)CCCNC(=N)N)C(=O)N[C@@H](CCC3CCCCC3)C(=O)N[C@@H](CCCNC(=N)N)C(=O)N[C@@H](CC(C)C)C(=O)N3CCC[C@H]3C(=O)N2)C(=O)CCSC[C@@H](C(=O)N[C@@H](CCCNC(=N)N)C(=O)N[C@@H](Cc2c[nH]c3ccccc23)C(=O)O)NC(=O)[C@H](CCCNC(=N)N)NC1=O
3,0.078,CC[C@H](C)[C@@H]1NC(=O)[C@H](CCC(N)=O)NC(=O)[C@H](CCCNC(=N)N)NC(=O)[C@@H]2CSCCC(=O)N3CN(CN(C3)C(=O)CCSC[C@H](NC(=O)[C@@H](N)CCCNC(=N)N)C(=O)N[C@@H](Cc3ccccc3)C(=O)N[C@@H](CCCNC(=N)N)C(=O)N[C@@H](CC(C)C)C(=O)N3CCC[C@H]3C(=O)N2)C(=O)CCSC[C@@H](C(=O)N[C@@H](CCCNC(=N)N)C(=O)N[C@@H](Cc2c[nH]c3ccccc23)C(=O)O)NC(=O)[C@H](CCCNC(=N)N)NC1=O (H-RCFRLPCRQIRCRW-OH; linker 2-7-12 via TATA)
4,> 3,CCCC[C@@H]1NC(=O)[C@H](CCCNC(=N)N)NC(=O)[C@H](Cc2ccccc2)NC(=O)[C@@H](NC(=O)[C@@H](N)CCCNC(=N)N)CSCCC(=O)N2CN3CN(C2)C(=O)CCSC[C@H](NC(=O)[C@@H]2CCCN2C1=O)C(=O)N[C@@H](CCCNC(=N)N)C(=O)N[C@@H](CCC(N)=O)C(=O)N[C@@H](CC(C)C)C(=O)N[C@@H](CCCNC(=N)N)C(=O)N[C@H](C(=O)N[C@@H](CCCNC(=N)N)C(=O)N[C@@H](Cc1c[nH]c2ccccc12)C(=O)O)CSCCC3=O (H-RCFR[Nle]PCRQLRCRW-OH; linker 2-7-12 via TATA)
5,0.012,CC(C)C[C@@H]1NC(=O)[C@H](CCC(N)=O)NC(=O)[C@H](CCCNC(=N)N)NC(=O)[C@@H]2CSCCC(=O)N3CN(CN(C3)C(=O)CCSC[C@H](NC(=O)[C@@H](N)CCCNC(=N)N)C(=O)N[C@@H](Cc3c[nH]c4ccccc34)C(=O)N[C@@H](CCCNC(=N)N)C(=O)N[C@@H](CC(C)C)C(=O)N3CCC[C@H]3C(=O)N2)C(=O)CCSC[C@@H](C(=O)N[C@@H](CCCNC(=N)N)C(=O)N[C@@H](Cc2c[nH]c3ccccc23)C(=O)O)NC(=O)[C@H](CCCNC(=N)N)NC1=O (H-RCWRLPCRQLRCRW-OH; linker 2-7-12 via TATA)
6,> 3,CC(C)C[C@@H]1NC(=O)[C@H](CCC(N)=O)NC(=O)[C@H](CCCNC(=N)N)NC(=O)[C@@H]2CSCCC(=O)N3CN(CN(C3)C(=O)CCSC[C@H](NC(=O)[C@@H](N)CCCNC(=N)N)C(=O)N[C@@H](Cc3ccccc3)C(=O)N[C@@H](CCCNC(=N)N)C(=O)N[C@@H](CC(C)(C)C)C(=O)N3CCC[C@H]3C(=O)N2)C(=O)CCSC[C@@H](C(=O)N[C@@H](CCCNC(=N)N)C(=O)N[C@@H](Cc2c[nH]c3ccccc23)C(=O)O)NC(=O)[C@H](CCCNC(=N)N)NC1=O (H-RCFR[tBuAla]PCRQLRCRW-OH; linker 2-7-12 via TATA)
7,0.143,CSCC[C@@H]1NC(=O)[C@H](CCC(N)=O)NC(=O)[C@H](CCCNC(=N)N)NC(=O)[C@@H]2CSCCC(=O)N3CN(CN(C3)C(=O)CCSC[C@H](NC(=O)[C@@H](N)CCCNC(=N)N)C(=O)N[C@@H](Cc3ccccc3)C(=O)N[C@@H](CCCNC(=N)N)C(=O)N[C@@H](CC(C)C)C(=O)N3CCC[C@H]3C(=O)N2)C(=O)CCSC[C@@H](C(=O)N[C@@H](CCCNC(=N)N)C(=O)N[C@@H](Cc2c[nH]c3ccccc23)C(=O)O)NC(=O)[C@H](CCCNC(=N)N)NC1=O (H-RCFRLPCRQMRCRW-OH; linker 2-7-12 via TATA)
8,0.38,CC(C)C[C@@H]1NC(=O)[C@H](CCC(N)=O)NC(=O)[C@H](CCCNC(=N)N)NC(=O)[C@@H]2CSCCC(=O)N3CN(CN(C3)C(=O)CCSC[C@H](NC(=O)[C@@H](N)CCCNC(=N)N)C(=O)N[C@@H](Cc3ccccc3)C(=O)N[C@@H](Cc3ccc(NC(=N)N)cc3)C(=O)N[C@@H](CC(C)C)C(=O)N3CCC[C@H]3C(=O)N2)C(=O)CCSC[C@@H](C(=O)N[C@@H](CCCNC(=N)N)C(=O)N[C@@H](Cc2c[nH]c3ccccc23)C(=O)O)NC(=O)[C@H](CCCNC(=N)N)NC1=O (H-RCF[Phe(4-guanidino)]LPCRQLRCRW-OH; linker 2-7-12 via TATA)

# More lines, now with the values behind:
row,Structure (SMILES),Ki [µM]
1,CC(C)C[C@@H]1NC(=O)[C@H](CCC(N)=O)NC(=O)[C@H](CCCNC(=N)N)NC(=O)[C@@H]2CSCCC(=O)N3CN(CN(C3)C(=O)CCSC[C@H](NC(=O)[C@@H](N)CCCNC(=N)N)C(=O)N[C@@H](Cc3ccccc3)C(=O)N[C@@H](CCCNC(=N)N)C(=O)N[C@@H](CC(C)C)C(=O)N[C@@H](C(C)C)C(=O)N2)C(=O)CCSC[C@@H](C(=O)N[C@@H](CCCNC(=N)N)C(=O)N[C@@H](Cc2c[nH]c3ccccc23)C(=O)O)NC(=O)[C@H](CCCNC(=N)N)NC1=O (H-RCFRLVCRQLRCRW-OH; linker 2-7-12 via TATA),0.047
2,CC(C)CC[C@@H]1NC(=O)[C@H](CCC(N)=O)NC(=O)[C@H](CCCNC(=N)N)NC(=O)[C@@H]2CSCCC(=O)N3CN(CN(C3)C(=O)CCSC[C@H](NC(=O)[C@@H](N)CCCNC(=N)N)C(=O)N[C@@H](Cc3ccccc3)C(=O)N[C@@H](CCCNC(=N)N)C(=O)N[C@@H](CC(C)C)C(=O)N3CCC[C@H]3C(=O)N2)C(=O)CCSC[C@@H](C(=O)N[C@@H](CCCNC(=N)N)C(=O)N[C@@H](Cc2c[nH]c3ccccc23)C(=O)O)NC(=O)[C@H](CCCNC(=N)N)NC1=O,0.0294
3,CC(C)C[C@@H]1NC(=O)[C@H](CCC(N)=O)NC(=O)[C@H](CCCNC(=N)N)NC(=O)[C@@H]2CSCCC(=O)N3CN(CN(C3)C(=O)CCSC[C@H](NC(=O)[C@@H](N)CCCNC(=N)N)C(=O)N[C@@H](Cc3ccncc3)C(=O)N[C@@H](CCCNC(=N)N)C(=O)N[C@@H](CC(C)C)C(=O)N3CCC[C@H]3C(=O)N2)C(=O)CCSC[C@@H](C(=O)N[C@@H](CCCNC(=N)N)C(=O)N[C@@H](Cc2c[nH]c3ccccc23)C(=O)O)NC(=O)[C@H](CCCNC(=N)N)NC1=O,0.057
4,CC(C)C[C@@H]1NC(=O)[C@H](CCC(N)=O)NC(=O)[C@H](CCCNC(=N)N)NC(=O)[C@@H]2CSCCC(=O)N3CN(CN(C3)C(=O)CCSC[C@H](NC(=O)[C@@H](N)CCCNC(=N)N)C(=O)N[C@@H](Cc3ccc(C(C)(C)C)cc3)C(=O)N[C@@H](CCCNC(=N)N)C(=O)N[C@@H](CC(C)C)C(=O)N3CCC[C@H]3C(=O)N2)C(=O)CCSC[C@@H](C(=O)N[C@@H](CCCNC(=N)N)C(=O)N[C@@H](Cc2c[nH]c3ccccc23)C(=O)O)NC(=O)[C@H](CCCNC(=N)N)NC1=O,> 1
5,CC[C@H](C)[C@@H]1NC(=O)[C@@H](NC(=O)[C@@H](N)CCCNC(=N)N)CSCCC(=O)N2CN3CN(C2)C(=O)CCSC[C@H](NC(=O)[C@@H]2CCCN2C(=O)[C@H](CC(C)C)NC(=O)[C@H](CCCNC(=N)N)NC1=O)C(=O)N[C@@H](CCCNC(=N)N)C(=O)N[C@@H](CCC(N)=O)C(=O)N[C@@H](CC(C)C)C(=O)N[C@@H](CCCNC(=N)N)C(=O)N[C@H](C(=O)N[C@@H](CCCNC(=N)N)C(=O)N[C@@H](Cc1c[nH]c2ccccc12)C(=O)O)CSCCC3=O (H-RCIRLPCRQLRCRW-OH; linker 2-7-12 via TATA),0.31
6,CC(C)C[C@@H]1NC(=O)[C@H](CCC(N)=O)NC(=O)[C@H](CCCNC(=N)N)NC(=O)[C@@H]2CSCCC(=O)N3CN(CN(C3)C(=O)CCSC[C@H](NC(=O)[C@@H](N)CCCNC(=N)N)C(=O)N[C@@H](Cc3cccc(F)c3)C(=O)N[C@@H](CCCNC(=N)N)C(=O)N[C@@H](CC(C)C)C(=O)N3CCC[C@H]3C(=O)N2)C(=O)CCSC[C@@H](C(=O)N[C@@H](CCCNC(=N)N)C(=O)N[C@@H](Cc2c[nH]c3ccccc23)C(=O)O)NC(=O)[C@H](CCCNC(=N)N)NC1=O,0.0045
7,CC(C)C[C@@H]1NC(=O)[C@H](CCCNC(=N)N)NC(=O)[C@H](Cc2ccccc2)NC(=O)[C@@H](NC(=O)[C@@H](N)CCCNC(=N)N)CSCCC(=O)N2CN3CN(C2)C(=O)CCSC[C@H](NC(=O)[C@@H]2CCCN2C1=O)C(=O)N[C@@H](CCCNC(=N)N)C(=O)N[C@@H](CCC(N)=O)C(=O)N[C@@H](C)C(=O)N[C@@H](CCCNC(=N)N)C(=O)N[C@H](C(=O)N[C@@H](CCCNC(=N)N)C(=O)N[C@@H](Cc1c[nH]c2ccccc12)C(=O)O)CSCCC3=O (H-RCFRLPCRQARCRW-OH; linker 2-7-12 via TATA),1.04
8,CC(C)C[C@@H]1NC(=O)[C@H](CCC(N)=O)NC(=O)[C@H](CCCNC(=N)N)NC(=O)[C@@H]2CSCCC(=O)N3CN(CN(C3)C(=O)CCSC[C@H](N)C(=O)N[C@@H](Cc3ccccc3)C(=O)N[C@@H](CCCNC(=N)N)C(=O)N[C@@H](CC(C)C)C(=O)N3CCC[C@H]3C(=O)N2)C(=O)CCSC[C@@H](C(=O)N[C@@H](CCCNC(=N)N)C(=O)O)NC(=O)[C@H](CCCNC(=N)N)NC1=O (H-CFRLPCRQLRCR-OH; linker 1-6-11 via TATA),0.33
